# According to the C3SDB collision cross section collection:
# Several values for one entry are separate records, joined by “and”; a condition that tells them apart may be missing. Equal values may be shown once.
# Legend:
# [1] = instrument: TW, calibrated with phosphatidylcholines (ESI+) and phosphatidylethanolamines (ESI-), doubly charged cardiolipins calibrated with poly-DL-…
# [2] = instrument: DT, single field
# [3] = instrument: DT, stepped-field
# [4] = [M+H]+; instrument: TW; calibrated with phosphatidylcholines (ESI+) and phosphatidylethanolamines (ESI-)
# [5] = instrument: DT, single field, calibrated with Agilent tune mix (Agilent)
smiles,measurement,setting,value
CCCCCC/C=C\CCCCCCCC(=O)OC[C@H](COP(=O)(O)OCCNC(=O)CCCCCCCCCCCCCCC)OC(=O)CCCCCCCCCCCCCCC [AcylPE(48:1)],collision cross section (N2),[1]; [M+Na]+,325 Å²
same,collision cross section (N2),[1]; [M-H]-,316.85 Å²
CCCCCCCCCCCCCCCC(=O)NCCOP(=O)(O)OC[C@@H](COC(=O)CCCCCCCCCCCCCCC)OC(=O)CCCCCCCC1CC1CCCCCC (some centres not stated) [AcylPE(49:1)],collision cross section (N2),[1]; [M+Na]+,328.3 Å²
same,collision cross section (N2),[1]; [M-H]-,320.39 Å²
CCCCCC/C=C\CCCCCCCC(=O)OC[C@H](COP(=O)(O)OC[C@@H](O)COC(=O)CCCCCCCCCCCCCCC)OC(=O)CCCCCCCCCCCCCCC [AcylPG(48:1)],collision cross section (N2),[1]; [M+Na]+,327.7 Å²
same,collision cross section (N2),[1]; [M-H]-,316.96 Å²
CCCCCCCCCCCCCCCC(=O)OC[C@H](O)COP(=O)(O)OC[C@@H](COC(=O)CCCCCCCCCCCCCCC)OC(=O)CCCCCCCC1CC1CCCCCC (some centres not stated) [AcylPG(49:1)],collision cross section (N2),[1]; [M+Na]+,332.3 Å²
same,collision cross section (N2),[1]; [M-H]-,320.54 Å²
CCCCCC/C=C\CCCCCCCC(=O)OCC(COP(=O)(O)OCC(O)COP(=O)(O)OCC(COC(=O)CCCCCCCCCCCCCC)OC(=O)CCCCCCC/C=C\CCCCCC)OC(=O)CCCCCCC/C=C\CCCCCC (configuration not stated) [CL(63:3)],collision cross section (N2),[1]; [M-2H]2-,394.68 Å²
CCCCCC/C=C\CCCCCCCC(=O)OC(COC(=O)CCCCCCCC1CC1CCCCCC)COP(=O)(O)OCC(O)COP(=O)(O)OCC(COC(=O)CCCCCCCCCCCCCCC)OC(=O)CCCCCCC/C=C\CCCCCCCC (configuration not stated) [CL(67:3)],collision cross section (N2),[1]; [M+2K]2+,428.6 Å²
same,collision cross section (N2),[1]; [M-2H]2-,404.47 Å²
CCCCCC/C=C\CCCCCCCC(=O)OCC(COP(=O)(O)OCC(O)COP(=O)(O)OCC(COC(=O)CCCCCCCC1CC1CCCCCC)OC(=O)CCCCCCC/C=C\CCCCCC)OC(=O)CCCCCCC/C=C\CCCCCCCC (configuration not stated) [CL(67:4)],collision cross section (N2),[1]; [M-2H]2-,404.19 Å²
CCCCCC/C=C\CCCCCCCC(=O)OC(COC(=O)CCCCCCCC1CC1CCCCCCCC)COP(=O)(O)OCC(O)COP(=O)(O)OCC(COC(=O)CCCCCCCCCCCCCCC)OC(=O)CCCCCCC/C=C\CCCCCCCC (configuration not stated) [CL(69:3)],collision cross section (N2),[1]; [M-2H]2-,408.91 Å²
CCCCCCCCCCCCCCC(=O)O[C@H](CO)COP(=O)([O-])OCC[NH3+] [LPE(0:0/15:0)],collision cross section (N2),[1]; [M+H]+,212.69 Å²
same,collision cross section (N2),[1]; [M+Na]+,216.84 Å²
same,collision cross section (N2),[1]; [M-H]-,202.25 Å²
CCCCCCCC/C=C/CCCCCCCC(=O)O[C@H](CO)COP(=O)([O-])OCC[NH3+] [LPE(0:0/18:1)],collision cross section (N2),[1]; [M+H]+,215.99 Å²
same,collision cross section (N2),[1]; [M+Na]+,220.12 Å²
same,collision cross section (N2),[1]; [M-H]-,210.71 Å²
CCCCCCCCCCCCCC(=O)OC[C@@H](O)COP(=O)([O-])OCC[NH3+] [LPE(14:0/0:0)],collision cross section (N2),[1]; [M+H]+,206.14 Å²
same,collision cross section (N2),[1]; [M+Na]+,212.49 Å²
same,collision cross section (N2),[1]; [M-H]-,199.2 Å²
CCCCC1CC1CCCCCCCC(=O)OC[C@@H](O)COP(=O)([O-])OCC[NH3+] (some centres not stated) [LPE(15:1/0:0)],collision cross section (N2),[1]; [M-H]-,200.28 Å²
CCCCCCCC/C=C/CCCCCCCC(=O)OC[C@@H](O)COP(=O)([O-])OCC[NH3+] [LPE(18:1/0:0)],collision cross section (N2),[1]; [M+H]+,214.35 Å²
same,collision cross section (N2),[1]; [M+Na]+,219.17 Å²
same,collision cross section (N2),[1]; [M-H]-,211.1 Å²
CCCCCCCCC1CC1CCCCCCCC(=O)OC[C@@H](O)COP(=O)([O-])OCC[NH3+] (some centres not stated) [LPE(19:1/0:0)],collision cross section (N2),[1]; [M+H]+,219.65 Å²
same,collision cross section (N2),[1]; [M+Na]+,225.77 Å²
same,collision cross section (N2),[1]; [M-H]-,214.97 Å²
CCCCCCCCCCCCCCC(=O)OC[C@@H](O)COP(=O)(O)OCC(O)CO (some centres not stated) [LPG(15:0)],collision cross section (N2),[1]; [M-H]-,209.66 Å²
CCCCCCCCCCCCCCCC(=O)O[C@H](CO)COP(=O)(O)OCC(O)CO (some centres not stated) [LPG(16:0)],collision cross section (N2),[1]; [M-H]-,213.25 Å²
CCCCCC/C=C/CCCCCCCC(=O)O[C@H](CO)COP(=O)(O)OCC(O)CO (some centres not stated) [LPG(16:1)],collision cross section (N2),[1]; [M-H]-,209.98 Å²
CCCCCCC1CC1CCCCCCCC(=O)O[C@H](CO)COP(=O)(O)OCC(O)CO (some centres not stated) [LPG(17:1)],collision cross section (N2),[1]; [M-H]-,213.68 Å²
CCCCCCCC/C=C/CCCCCCCC(=O)O[C@H](CO)COP(=O)(O)OCC(O)CO (some centres not stated) [LPG(18:1)],collision cross section (N2),[1]; [M-H]-,217.26 Å²
CCCCCCCCCCCCCCCC(=O)OCC(COP(=O)(O)O)OC(=O)CCCCCCCC1CC1CCCC (configuration not stated) [PA(31:1)],collision cross section (N2),[1]; [M-H]-,245.76 Å²
CCCCCC/C=C\CCCCCCCC(=O)OCC(COP(=O)(O)O)OC(=O)CCCCCCC/C=C\CCCCCC (configuration not stated) [PA(32:2)],collision cross section (N2),[1]; [M-H]-,247.47 Å²
CCCCCCCCCCCCCCCC(=O)OCC(COP(=O)(O)O)OC(=O)CCCCCCCC1CC1CCCCCC (configuration not stated) [PA(33:1)],collision cross section (N2),[1]; [M-H]-,252.33 Å²
CCCCCCCCCCCCCCCC(=O)OCC(COP(=O)(O)O)OC(=O)CCCCCCCC1CC1CCCCCCCC (configuration not stated) [PA(35:1)],collision cross section (N2),[1]; [M-H]-,258.7 Å²
CCCCCC/C=C\CCCCCCCC(=O)OCC(COP(=O)(O)O)OC(=O)CCCCCCCC1CC1CCCCCCCC (configuration not stated) [PA(35:2)],collision cross section (N2),[1]; [M-H]-,256.82 Å²
C=CCCCCCCCCCCCCC(=O)O[C@H](COC(=O)CCCCCCCCCCCCCCC)COP(=O)([O-])OCC[N+](C)(C)C [PC(31:1)],collision cross section (N2),[2]; [M+H]+,276.07 Å²
same,collision cross section (N2),[3]; [M+K]+,286.5 Å²
CCCCCC/C=C\CCCCCCCCCC(=O)OC[C@H](COP(=O)([O-])OCC[N+](C)(C)C)OC(=O)CCCCCCCCCCCCC [PC(32:1)],collision cross section (N2),[2]; [M+H]+,279.13 Å²
same,collision cross section (N2),[4],278 Å²
same,collision cross section (N2),[5]; [M+Na]+,282.6 Å²
CCCCCC/C=C\CCCCCCCC(=O)OCC(COP(=O)(O)OCCN)OC(=O)CCCCCCCCCCCCCCC (configuration not stated) [PE(32:1)],collision cross section (N2),[1]; [M+H]+,268.72 Å²
same,collision cross section (N2),[1]; [M-H]-,256.09 Å²
CCCCCC/C=C\CCCCCCCC(=O)OCC(COP(=O)(O)OCCN)OC(=O)CCCCCCCC1CC1CCCCCC (configuration not stated) [PE(33:2)],collision cross section (N2),[1]; [M+H]+,268.71 Å²
same,collision cross section (N2),[1]; [M-H]-,257.69 Å²
CCCCCCCC/C=C\CCCCCCCC(=O)OC(COC(=O)CCCCCCCCCCCCCCC)COP(=O)(O)OCCN (configuration not stated) [PE(34:1)],collision cross section (N2),[1]; [M+H]+,275.45 Å²
same,collision cross section (N2),[1]; [M-H]-,263.99 Å²
CCCCCCCCCCCCC=CC[C@@H](O)[C@H](COP(=O)([O-])OCC[N+](C)(C)C)NC(=O)CCCCCCCCCCCCCCCC [SM(35:1)],collision cross section (N2),[2]; [M+H]+,284.31 Å²
same,collision cross section (N2),[5]; [M+H]+,285.1 Å²
same,collision cross section (N2),[5]; [M+Na]+,285.6 Å²
same,collision cross section (N2),[3]; [M+Na]+,289.1 Å²
CCCCCCCCCCCCC=CC[C@@H](O)[C@H](COP(=O)([O-])OCC[N+](C)(C)C)NC(=O)CCCCCCCCCCCCCCCCCCC [SM(38:1)],collision cross section (N2),[2]; [M+H]+,293.47 Å²
same,collision cross section (N2),[5]; [M+HCOO]-,292.1 Å²
same,collision cross section (N2),[3]; [M+Na]+,298.5 Å²
CCCCCCCCCCCCC=CC[C@@H](O)[C@H](COP(=O)([O-])OCC[N+](C)(C)C)NC(=O)CCCCCCCCCCCCCCCCCCCCCC [SM(41:1)],collision cross section (N2),[2]; [M+H]+,302.5 Å²
same,collision cross section (N2),[5]; [M+HCOO]-,300.3 Å²
same,collision cross section (N2),[5]; [M+H]+,302.9 Å²
same,collision cross section (N2),[5]; [M+Na]+,302.8 Å²
same,collision cross section (N2),[3]; [M+Na]+,306.3 Å²
CCCCCCCCCCCCC=CC[C@@H](O)[C@H](COP(=O)([O-])OCC[N+](C)(C)C)NC(=O)CCCCCCCCCCCCCCCCCCCCCCC [SM(42:1)],collision cross section (N2),[2]; [M+H]+,304.96 Å²
same,collision cross section (N2),[5]; [M+HCOO]-,303 Å²
same,collision cross section (N2),[3]; [M+Na]+,309.3 Å²
CCCCCCCCCCCCC=CC[C@@H](O)[C@H](COP(=O)([O-])OCC[N+](C)(C)C)NC(=O)CC=CCCCCCCCCCCCCCCCCCCCC [SM(42:2)],collision cross section (N2),[2]; [M+H]+,305.54 Å²
same,collision cross section (N2),[5]; [M+H]+,304.2 Å²
same,collision cross section (N2),[5]; [M+Na]+,304.4 Å²
same,collision cross section (N2),[3]; [M+Na]+,308.2 Å²
CC/C=C\C/C=C\C/C=C\C/C=C\C/C=C\CCCC(=O)OC[C@@H](COC(=O)CCCCCCCCCCCCCCCCC)OC(=O)CCCC/C=C\C/C=C\C/C=C\CCCCC [TG(56:8)],collision cross section (N2),[2]; [M+NH4]+,323.28 Å² and 324.75 Å²
same,collision cross section (N2),[5]; [M+NH4]+,325.6 Å²
CCCCC/C=C\C/C=C\C/C=C\CCCCCCC(=O)O[C@H](COC(=O)CCCCCCCCCCCCCCC)COC(=O)CCCCCCCCCCCCCCCCCCCCC [TG(58:3)],collision cross section (N2),[2]; [M+NH4]+,339.23 Å² and 342.34 Å² and 337.3 Å²
same,collision cross section (N2),[5]; [M+NH4]+,336.8 Å²
CCCCC/C=C\C/C=C\C/C=C\CCCCCCCCC(=O)OC[C@@H](COC(=O)CCCCCCC/C=C\CCCCCCC)OC(=O)CCCCCCCCCCCCCCCCCC [TG(58:4)],collision cross section (N2),[2]; [M+NH4]+,340.43 Å² and 336.2 Å²
same,collision cross section (N2),[5]; [M+NH4]+,336.6 Å²
CC/C=C\C/C=C\C/C=C\C/C=C\C/C=C\CCCCCC(=O)OC[C@@H](COC(=O)CCCCCCC/C=C\CCCCCC)OC(=O)CCCCCC/C=C\C/C=C\C/C=C\CCCCC [TG(58:9)],collision cross section (N2),[2]; [M+NH4]+,328.42 Å² and 327.73 Å²
same,collision cross section (N2),[2]; [M+Na]+,329.2 Å²
same,collision cross section (N2),[5]; [M+NH4]+,330 Å²
CC/C=C\C/C=C\C/C=C\C/C=C\C/C=C\CCCCCC(=O)OC[C@@H](COC(=O)CCCCCCCCCCCCCCC)OC(=O)CCC/C=C\C/C=C\C/C=C\C/C=C\C/C=C\CC [TG(58:10)],collision cross section (N2),[2]; [M+NH4]+,327.44 Å²
same,collision cross section (N2),[5]; [M+NH4]+,327.2 Å²
CCCCC/C=C\C/C=C\C/C=C\CCCCCCCCC(=O)OC[C@@H](COC(=O)CCCCCCCCCCCCCCCCC)OC(=O)CCCCCCCCC/C=C\C/C=C\CCCCC [TG(60:5)],collision cross section (N2),[2]; [M+NH4]+,344.42 Å²
same,collision cross section (N2),[5]; [M+NH4]+,339.4 Å²
